Experimental data: patent US20070141635A1, “Novel translocation assay” (priority 2003, published 2007)

Key:
GLUT1 = settings: Perini et al., Diabetes 53:41-52, 2004; cited from earlier work
GLUT4 = settings: cited from earlier work
[1] = system: 3T3-L1 adipocytes expressing HA-GLUT4 WT; experiment: Continuous anti-HA antibody uptake (GLUT4 recycling) experiment; format: cell-based
Protocol: For continuous antibody uptake experiments, cells were incubated for 20 min with or without insulin, whereafter anti-HA (50 μg/ml) or non-relevant antibody was added. Cells that were used to determine the total amount of HA-GLUT4 were not incubated with antibody during this 37° C. incubation. After incubation, the cells were fixed and quenched as described above, and incubated for 20 min with 5% NSS and 0.1% saponin. Cells that were used to determine the total cellular amount of HA-GLUT4 were incubated for 60 min with anti-HA antibody or control antibody in PBS containing 2% NSS. All other cells were incubated with 2% NSS without antibody. Subsequently, the cells were incubated with ALEXA488-conjugated goat-anti-mouse antibody and ALEXA594-conjugated WGA, washed and analysed. The amount of specific anti-HA uptake was expressed as a percentage of total cellular immuno-reactive HA-GLUT4.
To analyze the exchange of GLUT4 with the cell surface under steady state conditions, studies were performed in which live cells were incubated with anti-HA antibody at 37° C. (FIG. 5). […] 3T3-L1 adipocytes expressing HA-GLUT4 WT were stimulated for 2 h with 200 nM insulin in the presence of anti-HA antibody, washed extensively, incubated for 2 h without insulin and anti-HA, and incubated for a further 20 min in the absence (FIG. 5C) or presence (FIG. 5D) of 200 nM insulin.
For quantification of anti-HA antibody uptake, cells were preincubated for 20 min in the presence or absence of insulin after which anti-HA antibody or control antibody was added for various times (FIG. 5E). Antibody uptake was determined by labeling cells with fluorescent secondary antibody after fixation. Antibody uptake was expressed as a percentage of post-fixation anti-HA labeling.
To study this non-recycling GLUT4 pool in adipocytes, 3T3-L1 adipocytes expressing HA-GLUT4 WT were incubated at 37° C. in the continuous presence of anti-HA antibody. Cells were incubated with or without 200 nM insulin for 20 min, after which anti-HA antibody was added in the continued presence or absence of insulin. Cells were incubated further for up to 180 min, fixed, permeablilized, and incubated with fluorescent secondary antibody. The level of anti-HA antibody taken up by the cells was then expressed as a percentage of total post-fixation anti-HA labeling of permeablilized cells.

[2] = system: 3T3-L1 adipocytes expressing HA-GLUT4 WT; experiment: Inducing GLUT4 translocation with insulin followed by sucrose; format: cell-based; settings: 0.3 or 0.6M sucrose for 2 hours after 20 minutes 200 nM insulin; serum free
Protocol: 3T3-L1 adipocytes expressing HA-GLUT4 WT were serum starved for 2 hours at 37° C. Following 20 minutes insulin stimulation with 200 nM insulin, cells were incubated for additional 2 hours in serum free medium supplemented with 0.2% BSA and 0.3 or 0.6M sucrose. After post-fixation anti-HA immunolabeling the level of cell surface HA-GLUT4 levels was determined as a percentage of total HA-GLUT4 detected after cell lysis. […] Furthermore, increasing concentrations of sucrose induce more GLUT4 to translocate to the plasma membrane in the presence of reduced levels of insulin.

[3] = system: 3T3-L1 adipocytes expressing HA-GLUT4; experiment: Single cycle GLUT4 internalization experiment; format: cell-based
Protocol: For single cycle internalization experiments cells were stimulated for 20 min with 200 nM insulin after starvation and washed on ice with ice-cold DMEM containing 20 mM HEPES pH 7.4 and 0.2% BSA. Cells were incubated with 100 nM wortmannin or 200 nM insulin and either anti-HA (25 μg/ml) or non-relevant antibody (MOPC21) in DMEM/HEPES/BSA for 1 h on ice. Wortmanin was added to abolish insulin signaling. […] Cells were washed extensively, then either 100 nM wortmanin or 200 nM insulin in DMEM/HEPES/BSA was added. The plate was then transferred to 37° C. and at different times, formaldehyde was added to the wells to a concentration of 3%. After 5 min the formaldehyde was washed away and residual amounts were quenched. The cells were incubated for 20 min with 5% NSS in the absence of saponin, labeled with ALEXA488-conjugated goat-anti-mouse antibody and ALEXA594-conjugated WGA, washed and analysed as described above.
GLUT4 WT molecules that were labeled with anti-HA antibody on ice were rapidly cleared from the cell surface as indicated by the disappearance of GLUT4 at early time points after transfer of the cells from ice to 37° C. (FIG. 4). After approximately 5 min the level of GLUT4 at the PM reached steady state in the presence but not in the absence of insulin, indicating recycling of GLUT4 back to the PM in insulin-stimulated cells. […]

[4] = system: HA-GLUT4 expressing 3T3-L1 adipocytes; experiment: Model of insulin resistance (chronic insulin stimulation, then acute insulin); format: cell-based; settings: for level of GLUT4 at the plasma membrane after chronic insulin: FIG. 12A
Protocol: 3T3-L1 adipocytes retrovirally infected with GLUT4 (described in Example 1) were incubated 24 hours or 48 hours either with 600 nM insulin or with medium alone. After this chronic insulin stimulation (as indicated in FIG. 10) at 37° C. in a CO2 incubator, cells were washed and 200 nM insulin was added for additional 10 or 30 minutes. Cell surface levels of HA-GLUT4 were measured using the fluorescence based assay described supra and expressed as a percentage of total HA-GLUT4 detected in the cell. The experiment was also performed with the HA-GLUT4 TAIL mutant
HA-GLUT4 expressing 3T3-L1 adipocytes were grown in 96 well plates, incubated for 2 hours or overnight in medium supplemented with 10% fetal calf serum or no serum. 200 nM insulin in case of acute stimulation and 600 nM insulin in case of chronic stimulation have been used. After overnight stimulation cells were washed and 200 nM fresh insulin was added for 10 or 30 mln.

[5] = system: 3T3-L1 fibroblasts expressing HA-tagged GLUT4; experiment: Fluorescence-based HA-GLUT4 translocation assay in fibroblasts; format: cell-based
[6] = system: HA-GLUT4-expressing 3T3-L1 adipocytes; experiment: Fluorescence-based HA-GLUT4 translocation assay (GLUT4 at plasma membrane as percentage of total) in adipocytes; format: cell-based
Protocol: Retrovirally-transduced fibroblasts expressing HA-tagged GLUT 4 or a mutant therof were differentiated into adipocytes essentially as described above. These adipocytes were then subcultured for 30 hours. Insulin was then added at different time points, after which the cells were fixed in 3% formaldehyde. After washing and quenching with 50 mM glycine, cells were incubated for 20 min with 5% normal swine serum (NSS) in the absence or presence of 0.1% saponin to analyse the level of GLUT4 at the plasma membrane (PM) or the total cellular GLUT4 content, respectively. Cells were incubated for 60 min with a saturating concentration of either an antibody directed against the HA tag or a control non-relevant antibody (mouse IgG MOPC21) in PBS containing 2% NSS. After extensive washing, the cells were incubated for 20 min with 5% NSS in the presence or absence of 0.1% saponin to permeabilize all cells. Cells were incubated for 60 min with saturating concentrations of ALEXA488-conjugated goat-anti-mouse antibody (20 μg/ml) and ALEXA594-conjugated WGA (10 μg/ml) in PBS containing 2% NSS. After washing, fluorescence ([…]) was measured using the bottom-reading mode in a fluorescence microtiter plate reader (FLUOstar Galaxy, BMG Labtechnologies, Offenburg, Germany). The percentage of GLUT4 at the PM was calculated for each condition. ALEXA594-WGA fluorescence was used to correct for variation in cell density in each well.
To determine the extent of insulin-induced GLUT4 translocation using the assay described supra, HA-GLUT4-expressing 3T3-L1 adipocytes grown in 96 well plates were incubated for 2 h in the absence of serum, whereafter 200 nM insulin was added at various time points and cell surface levels of HA-GLUT4 were analysed by indirect immunofluorescence labeling (FIG. 2B). Saturating levels of anti-HA and secondary antibodies were used to ensure that substantially all HA-GLUT4 molecules were labeled. A non-relevant antibody was used at the same concentration to determine the non-specific binding of the anti-HA antibody. Insulin stimulated the appearance of HA-GLUT4 at the PM with a half-time of about 2.5 min reaching a plateau by 12 min which was maintained for at least 60 min. No specific anti-HA labeling was detected in non-infected cells (FIG. 2A).

C[C@]12CC[C@H](O)CC1=CC[C@@H]1[C@@H]2CC[C@]2(C)C(=O)CC[C@@H]12 [DHEA, Dehydroepiandrosterone]
effect on levels of GLUT1 at the plasma membrane (GLUT1): enhance levels of GLUT1 at the plasma membrane

CO[C@@H]1C[C@@H](C[C@H]2CC[C@H](C)[C@H]([C@@H](C)C(=O)O)O2)O[C@]2(O[C@](C)([C@H]3CC[C@@](C)([C@@H]4O[C@@H]([C@H]5O[C@@](O)(CO)[C@H](C)C[C@@H]5C)C[C@@H]4C)O3)C[C@H]2C)[C@@H]1C [Nigericin, nigericin]
effect on insulin mediated GLUT4 translocation (GLUT4; Chu et al., J Cell Biochem. 2002;85:83-91): inhibit insulin mediated GLUT4 translocation

C[C@@H]1C[C@@H]([C@H](O)CC2CC(=O)NC(=O)C2)C(=O)[C@@H](C)C1 [cycloheximide]
GLUT4 that could not be labeled during antibody uptake ([1]; 10 mg/ml cycloheximide for 2 h prior to the addition of antibody, FIG. 6F): 30%

OC[C@H]1O[C@@](CO)(O[C@H]2O[C@H](CO)[C@@H](O)[C@H](O)[C@H]2O)[C@@H](O)[C@@H]1O [sucrose]
level of HA-GLUT4 translocated to the plasma membrane [2]: dramatically increases

insulin
HA-GLUT4 expressed in the cell that did not translocate to the membrane during the experiment ([1]; 200 nM insulin, up to 180 min): approximately 30%
HA-GLUT4 labeled by anti-HA antibody uptake, percentage of total post-fixation labeling ([1]; 200 nM insulin, up to 180 min, FIG. 6A): approximately 30%
size of the recycling pool of GLUT4 ([1]; different doses of insulin, FIG. 8): incrementally increased with increasing doses
effect on GLUT4 internalization rate ([3]; 200 nM insulin versus 100 nM wortmannin (basal), GLUT4 WT and TAIL): unaffected
time until level of GLUT4 at the PM reached steady state ([3]; in the presence of 200 nM insulin, after transfer from ice to 37° C.): approximately 5 min
levels of GLUT4 translocation after chronic insulin ([4]; 600 nM insulin 24 or 48 h in the absence of serum (-serum or KRP), then 200 nM insulin): little more than basal levels
level of GLUT4 at the plasma membrane after chronic insulin ([4]; 600 nM insulin 24 h in the presence of serum): dramatically increased
level of GLUT4 at the plasma membrane after chronic insulin ([4]; 600 nM insulin 48 h in the presence of serum): suppressed
time to maximum level of surface GLUT4 ([5]; followed by rapid reduction): 6 min
increase in surface GLUT4 above non-stimulated cells ([5]; maximum level): 5 fold
time for which plateau of HA-GLUT4 at the PM was maintained ([6]; 200 nM insulin): at least 60 min
time to plateau of HA-GLUT4 at the PM ([6]; 200 nM insulin after 2 h in the absence of serum): ≤ 12 min
half-time of appearance of HA-GLUT4 at the PM ([6]; 200 nM insulin after 2 h in the absence of serum, 96 well plates): about 2.5 min
effect of long-term insulin treatment on cell surface HA-GLUT4 levels ([6]; 200 nM insulin for up to 3 hours, FIG. 6H): did not drastically down-regulate cell surface GLUT4 levels
level of GLUT4 at the PM as percentage of total specific fluorescence ([6]; 200 nM insulin, basal value 4%): 34%
increase in cell surface GLUT4 levels in response to insulin stimulation ([6]; adipocytes, 200 nM insulin): ~8 fold

margatoxin (TIINVKCTSPKQCLPPCKAQFGQSAGAKCMNGKCKCYPH; UniProt P40755 1-39, looked up)
effect on level of GLUT4 translocated to the plasma membrane (GLUT4; suppression of Kv1.3 activity, Xu et al, Proc Natl Acad Sci USA. 101:3112-3117, 2004): increase the level of GLUT4 translocated to the plasma membrane
